Reference: PMC10202811 (Nature Medicine, 2023)
Read-outs that look alike come from different tables or passages of the source.

Test: Plasma pharmacokinetics of lorlatinib at steady state (LC-MS/MS, non-compartmental analysis)
Type: in vivo, human
Details: for Lambda_z: in h-1 (unit assumed); for Tlag: unit assumed; for Cmax: read-out: Cmax; for AUC: read-out: AUC_TAU
Source text: Lorlatinib was isolated from human plasma by a liquid-iquid extraction procedure. […] A linear-log trapezoidal method was used [NT] A best-fit method was used to estimate terminal elimination and to extrapolate any plasma concentration versus time profiles to compute [NT].

[1] = Cycle 1 Day 15, Cohort A1, 115 mg/m2 per dose, individual patients
[2] = Cycle 1 Day 15, Cohort A1, 115 mg/m2 per dose, individual patients, in h (unit assumed)
[3] = Cycle 1 Day 15, Cohort A1, 115 mg/m2 per dose, individual patients, in ng/mL
[4] = Cycle 1 Day 15, Cohort A2, 100 mg per dose, individual patients
[5] = Cycle 1 Day 15, Cohort A2, 150 mg per dose, individual patients
[6] = Cycle 1 Day 15, Cohort A2, 150 mg per dose, individual patients, in h (unit assumed)
[7] = Cycle 1 Day 15, patient N0773, Cohort B2, 115 mg/m2 per dose, Dose 75
[8] = Cycle 1 Day 15, patient N0773, Cohort B2, 115 mg/m2 per dose, Dose 75, in h (unit assumed)
[9] = human, in vivo, 115 mg/m2, Cohort A1, 115 mg/m2 per dose, C1D15, Geometric Mean, N 6
[10] = human, in vivo, 115 mg/m2, Cohort A1, 115 mg/m2 per dose, C1D15, Median, N 6
[11] = human, in vivo, 115 mg/m2, Cohort B2, 115 mg/m2 per dose, C1D15, Geometric Mean, N 6
[12] = human, in vivo, 115 mg/m2, Cohort B2, 115 mg/m2 per dose, C1D15, Median, N 6
[13] = human, in vivo, 115 mg/m2, Cycle 1 Day 1, Cohort B2, 115 mg/m2 per dose

Q: What does the source list for `C[C@H]1Oc2cc(cnc2N)-c2c(nn(C)c2C#N)CN(C)C(=O)c2ccc(F)cc21` [Lorlatinib, (10R)-7-amino-12-fluoro-2,10,16-trimethyl-15-oxo-10,15,16,17-tetrahydro-2H-8,4-(metheno)pyrazolo[4,3-h][2,5,11]-benzoxadiazacyclotetradecine-3-carbonitrile]?
A: Swing [1]: 8.184; Swing_Tau [1]: 8.184; Tlast [1]: 24 h; Vz_F [1]: 274.2; HL_Lambda_z [2]: 12; Tmin [2]: 0; Lambda_z [1]: 0.05778; Cavg [3]: 341.9; Clast [3]: 147; Clast_pred [3]: 144.8; Cmin [3]: 147; Ctau [3]: 147; Tlag [1]: 0 h; AUC_TAU_%Extrap [4]: 0%; Tlast [4]: 24 h; Tmax (Cycle 1 Day 15, Cohort A2, 100 mg per dose, individual patients, in h (unit assumed)): 2; Tmax (Cycle 1 Day 15, Cohort A2, 100 mg per dose, individual patients, listed as lorlatinib, in h (unit assumed)): 2; Tlag [4]: 0 h; AUC_TAU_%Extrap [5]: 0%; Tlast [5]: 24 h; MRTINF_obs [6]: 20.95; MRTINF_pred [6]: 20.85; Tmax [6]: 2; Tmin [6]: 0; Clast_pred (Cycle 1 Day 15, Cohort A2, 150 mg per dose, individual patients, in ng/mL): 129.9; AUCINF_pred (Cycle 1 Day 15, Cohort A2, 150 mg per dose, individual patients, in ng·h/mL (unit assumed)): 8874; Tlag [5]: 0 h; AUMC_TAU [7]: 28139.0694; Accumulation_Index [7]: 1.002; CLss_F [7]: 10.79; Cmax_D [7]: 23.73; Fluctuation% [7]: 464.7; Fluctuation%_Tau [7]: 613.5; Swing [7]: 3.101; Swing_Tau [7]: 559.2; Tlast [7]: 6 h; Vz_F [7]: 40.19; HL_Lambda_z [8]: 2.582; Tmin [8]: 6; Lambda_z [7]: 0.2684; Cavg (Cycle 1 Day 15, patient N0773, Cohort B2, 115 mg/m2 per dose, Dose 75, in ng/mL): 289.6; Tlag [7]: 0 h; Tmax (human, in vivo, 60 mg/m2, Cohort A1, 60 mg/m2 per dose, C1D15, Geometric Mean, N 3, read-out: Tmax): 1.59 h; Cmax (human, in vivo, 75 mg/m2, Cycle 1 Day 1, Cohort A1, 75 mg/m2 per dose, individual patients): 0.467 µg/mL; AUC [9]: 8.64 µg·h/mL; Cmax [9]: 1.21 µg/mL; Tmax (human, in vivo, 115 mg/m2, Cohort A1, 115 mg/m2 per dose, C1D15, Geometric Mean, N 6, read-out: Tmax): 1.59 h; AUC [10]: 8.57 µg·h/mL; Cmax [10]: 1.28 µg/mL; Tmax (human, in vivo, 115 mg/m2, Cohort A1, 115 mg/m2 per dose, C1D15, Median, N 6, read-out: Tmax): 1.5 h; AUC [11]: 7.95 µg·h/mL; Cmax [11]: 1.46 µg/mL; Tmax (human, in vivo, 115 mg/m2, Cohort B2, 115 mg/m2 per dose, C1D15, Geometric Mean, N 6, read-out: Tmax): 1.12 h; AUC [12]: 6.94 µg·h/mL; Cmax [12]: 1.56 µg/mL; Tmax (human, in vivo, 115 mg/m2, Cohort B2, 115 mg/m2 per dose, C1D15, Median, N 6, read-out: Tmax): 1 h; MRT last (human, in vivo, 115 mg/m2, Cycle 1 Day 1, Cohort A1, 115 mg/m2 per dose): 11.1 h; Tmax (human, in vivo, 115 mg/m2, Cycle 1 Day 1, Cohort A1, 115 mg/m2 per dose, read-out: Tmax): 1 h; AUC(0-t) [13]: 17.7 µg·h/mL; MRT last [13]: 8.5 h
